Test results taken from US20250353812A1, “2,6-DIBENZYLIDENECYCLOHEXANONE OXIME COMPOUND AND PREPARATION METHOD THEREFOR AND USE THEREOF” (WENZHOU MEDICAL UNIVERSITY, priority 2022, published 2025).

Experiments:
[1] = tested on: liver lipid metabolism of obese mice; assay: Protective effect on liver lipid metabolism of obese mice (high-fat diet); assay type: in vivo; conditions: HFD mice; Example 9 12 mg/kg, Example 2 10 mg/kg, intragastric gavage every two days for 8 weeks
Description: (§1) A suspension of 0.5% sodium carboxymethylcellulose and the compounds of Examples was prepared for intragastric administration. The blank control group and the high-fat diet obesity model group were administrated with equal doses of solvent (0.5% CMC-Na solution) intragastrically. The mice were first adaptively raised for 1 week, and when the mice were 8 weeks old, they were randomly divided into 2 groups (A: Con, B: HFD). Group A was fed with normal mouse feed, and mice in group B were fed with 60% high-fat feed for 16 weeks. After the model was successfully established at 12 weeks, the mice in group B were randomly divided into three groups (i: HFD, ii: HFD+Example 9, 12 mg/kg, iii: HFD+Example 2, 10 mg/kg). The body weight of the mice was measured and recorded every week, and groups ii and iii were treated with the compounds of Examples by intragastric gavage every two days for 8 weeks. After 24 weeks, the mice were anesthetized and sacrificed, and blood samples were collected and centrifuged to collect serum for various serum biochemical tests; the liver was removed, and the liver tissue was cut and embedded (frozen and paraffin) for immunohistochemistry and other analyses. The remaining liver tissues were snap frozen in liquid nitrogen and stored in a −80° C. freezer.
The liver lipid metabolism of obese mice is taken as an example. […] It can be clearly seen from the above test results that the compound having the structure of formula I of the present invention has a protective effect on the liver lipid metabolism of obese mice.

IL-6 = assay: Inhibition of IL-6 release from J774A.1 macrophages stimulated by LPS (ELISA); assay type: cell-based; conditions: 10 μM compound pretreatment 2 h, then 0.5 μg/mL LPS 22 h, LPS control = 100, FIG. 1
Description: (§2) The present invention tested the dose-effect relationship of some of the compounds of Examples in inhibiting the release of IL-6 and TNF-α from J774A.1 macrophages stimulated by LPS. The specific method is as follows: 1.2×10^6 […] macrophages were cultured by DMEM culture solution at 37° C., the culture solution was renewed after 24 h, the tested example compound (at a final concentration of 10 μM) was added for pretreatment for 2 h and then continuously treated by 0.5 μg/mL of LPS for 22 h, the culture solution was collected, and the content of IL-6 and TNF-α was detected by ELISA method. The total protein concentration was measured by collecting cells, the ELISA results were divided by the corresponding total protein concentration and calibrated by the IL-6 and TNF-α content of LPS control group as 100, and the average and error values were calculated.

TNF-α = assay: Inhibition of TNF-α release from J774A.1 macrophages stimulated by LPS (ELISA); assay type: cell-based; conditions: 10 μM compound pretreatment 2 h, then 0.5 μg/mL LPS 22 h, LPS control = 100, FIG. 2
Description: as §2

[2] = tested on: liver inflammation in obese mice; assay: Protective effect on liver inflammation in obese mice (high-fat diet); assay type: in vivo; conditions: HFD mice, Example 9 12 mg/kg, intragastric gavage every two days for 8 weeks
Description: as §1
Taking the compounds of Examples 2 and 9 as examples, the experimental results are shown in FIGS. 3A-3D and FIGS. 4A-4E, where 2 and 9 represent the compounds of Example 2 and Example 9, respectively. Inflammation was assessed by examining macrophage infiltration in the liver using the macrophage-specific marker F4/80 staining. […] In addition, the expression of TNF-α, IL-6 and IL-1β genes in liver tissue was detected.

ON=C1/C(=C/c2ccccc2C(F)(F)F)CCC/C1=C\c1ccccc1C(F)(F)F [Example 9, 2,6-(E,E)-(2-(trifluoromethyl)benzylidene)cyclohexanone oxime]
dyslipidemia caused by high-fat diet feeding (serum triglycerides, low-density lipoprotein cholesterol, total cholesterol) [1]: significantly alleviated
lipid accumulation in the liver (H&E staining) [1]: significantly alleviated
lipid accumulation in the liver (oil red staining of frozen sections, quantified) [1]: significantly alleviates
inhibitory effect on the release of IL-6 (IL-6): significant inhibitory effect
inhibitory effect on the release of TNF-α (TNF-α): significant inhibitory effect
macrophage infiltration in the liver (F4/80 staining) ([2]; Example 2 10 mg/kg): decreased
upregulation of IL-1β gene in mouse liver tissue (mRNA) ([2]; Example 2 10 mg/kg): significantly alleviated
upregulation of IL-6 gene in mouse liver tissue (mRNA) ([2]; Example 2 10 mg/kg): significantly alleviated
upregulation of TNF-α gene in mouse liver tissue (mRNA) ([2]; Example 2 10 mg/kg): significantly alleviated
degradation of IκB-α in the liver caused by high-fat diet feeding (Western blot) [2]: significantly inhibit
